Key:
tyrosinase = target: T1, tyrosinase (Homo sapiens, UniProt P14679); assay: Tyrosinase activity in living skin explant sections (L-DOPA method of Laidlaw and Blackberg); assay type: cell-based; details: non-irradiated skin explants, topical gel 2 mg/cm^2, Day 5
T1 construct: Where tyrosinase is active, L-DOPA is oxidized, producing an observable black pigment in the melanocytes; from tissue; host or cells: living abdominal skin explants (melanocytes)
T1 sequence (P14679 19-529): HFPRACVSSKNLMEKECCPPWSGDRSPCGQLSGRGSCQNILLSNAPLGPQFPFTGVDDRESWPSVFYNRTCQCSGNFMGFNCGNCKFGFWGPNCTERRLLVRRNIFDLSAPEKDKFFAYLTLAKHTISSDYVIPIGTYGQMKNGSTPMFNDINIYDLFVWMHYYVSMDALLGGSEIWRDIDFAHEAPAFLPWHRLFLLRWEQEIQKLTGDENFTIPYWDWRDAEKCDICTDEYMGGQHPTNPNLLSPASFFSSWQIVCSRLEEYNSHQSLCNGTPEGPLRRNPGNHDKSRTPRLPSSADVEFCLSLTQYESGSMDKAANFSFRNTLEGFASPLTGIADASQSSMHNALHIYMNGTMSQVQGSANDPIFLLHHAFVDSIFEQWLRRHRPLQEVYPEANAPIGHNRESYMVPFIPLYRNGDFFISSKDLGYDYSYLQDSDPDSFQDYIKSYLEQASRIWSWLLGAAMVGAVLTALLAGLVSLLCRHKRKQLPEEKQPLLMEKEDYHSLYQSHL

melanocyte dendricity = assay: Melanocyte dendricity in skin explant cryostat sections, Anti-Melan-A immunofluorescence; assay type: cell-based, human; details: Day 5
Experimental: (§1) Skin samples from an abdominal plastic surgery patient are placed in a specific explant survival medium BEM from Centre de Recherche Laboratoire BIO-EC (Clamart, France). Once daily, the living skin explants are irradiated with a Vilber Lourmat solar simulator RMX3W (Marne-la-Vallee, France) at a dose of 75 mJ/cm^2 within a wavelength range of 290-330 nm and a peak of 312 nm (UVB) for 80 seconds.
(§2) Five minutes following irradiation, the skin samples are treated with a topical application of 2 mg/cm^2 of a gel formulation comprising the Phytocytol™ BLM, a stable flavonoid solution according to the present invention. The gel formulation is made according to the following procedure: Three separate gels, each containing one of baicalin, luteolin and myricetin, are prepared according to the same procedure. In a main beaker, add DI Water, Germall Plus and Carbopol Ultrez-10. When Carbopol is dispersed add ¼ of the indicated amount of Neutrol TE. Add Polycast-3 and continue mixing. Add the flavonoid solution (A, B and C) until homogenous. Add the remaining Neutrol TE and mix. The resulting Baicalin Gel, Luteolin Gel and Myricetin Gel are mixed in equal parts to form a gel having a pH of 6.91 and a viscosity of 30,500 cps (LV4@12 rpm). […]

[1] = tested on: melanin within the melanocytes; assay: Melanin deposits in melanocytes of skin explants, Fontana-Masson silver stain; assay type: cell-based, human; details: Day 5
Experimental: as §1, §2

SMILES: OC[C@H]1O[C@@H](Oc2ccc(O)cc2)[C@H](O)[C@@H](O)[C@@H]1O [arbutin]
- level of tyrosinase activity (tyrosinase): substantially greater compared to the arbutin-treated samples
- level of melanocyte dendricity (melanocyte dendricity; after UVB irradiation, skin explants): low level of dendricity
- level of melanocyte dendricity (melanocyte dendricity; non-UVB irradiated skin explants): low level of dendricity
- melanin deposits ([1]; absence of UVB irradiation): low levels of melanin deposits
- melanin deposits ([1]; after exposure to UVB irradiation): An increase in melanin deposits is not observed

From US20100227826A1, “Stable Flavonoid Solutions” (priority 2005, published 2010)
